Measurements taken from paper PMC6001238, “Iterative Chemical Engineering of Vancomycin Leads to Novel Vancomycin Analogs With a High in Vitro Therapeutic Index” (Frontiers in Microbiology, 2018).
In brackets after ≈: the same amount, converted by molar mass. Like-named read-outs stand apart in the source and are kept apart here.

Tests used:
[1] = test system: Murine leukemia (L1210) cells; test: Cytostatic activity, L1210 cell proliferation; assay type: cell-based; conditions: mean ± SD of three experiments; highest concentration tested 250 µM; 2 days; read-out: Toxicity (IC50) L1210
In short: (§1)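 Readout: Coulter cell number after drug exposure at 37°C. Durations differ by line (L1210 2 days; CEM 3 days; HeLa 4 days). Stock suspension 300,000–500,000 cells/mL, diluted by mixing with compound. Endpoint: IC50 vs negative control.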

MRSA KS2 = test: MIC, broth microdilution, MRSA KS2; assay type: cell-based, Staphylococcus aureus
In short: (§2)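 Following CLSI antimicrobial susceptibility standards, organisms were tested by broth microdilution. Controls comprised ultrapure water plus broth left uninoculated. For a single condition, 10 μM vancomycin (final) accompanied the analog or control agent.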

S. aureus VRSA = test: MIC, broth microdilution, vancomycin-resistant S. aureus (VRSA); assay type: cell-based, Staphylococcus aureus
In short: as §2

MRSA KS1 = test: MIC, broth microdilution, MRSA KS1; assay type: cell-based, Staphylococcus aureus
In short: as §2

VE 149 (VanB) = test: MIC, VanB-type VRE strain VE 149; assay type: cell-based, Enterococcus; conditions: VE 149, VanB; read-out: MIC
In short: as §2

MRSA = test: Minimum bactericidal concentration against MRSA; assay type: cell-based, Staphylococcus aureus
Method: Plates were incubated overnight at 37°C and colony growth was inspected.

[2] = test system: Clostridium difficile ATJ ribotype 014/20; test: MIC, plate drop assay, C. difficile ATJ ribotype 014/20; assay type: cell-based; conditions: C. difficile ATJ ribotype 014/20
In short: (§3)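 Twofold dilution series of test compounds were spotted onto C. difficile lawns in 0.4% BHI agar containing added calcium and magnesium salts. After overnight anaerobic incubation at 37°C, growth inhibition was scored by spot clearing; triplicate runs, ultrapure water negative control.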

[3] = test system: human cervix carcinoma (HeLa) cells; test: Cytostatic activity, HeLa cell proliferation; assay type: cell-based; conditions: mean ± SD of three experiments; highest concentration tested 250 µM; 4 days; read-out: Toxicity (IC50) HeLa
In short: as §1

VE 150 (VanB) = test: MIC, VanB-type VRE strain VE 150; assay type: cell-based, Enterococcus; conditions: VE 150, VanB; read-out: MIC
In short: as §2

[4] = test system: Clostridium difficile AIU ribotype 027; test: MIC, plate drop assay, C. difficile AIU ribotype 027; assay type: cell-based; conditions: C. difficile AIU ribotype 027
In short: as §3

E. faecalis VRE 6 = test: MIC, broth microdilution, vancomycin-resistant E. faecalis VRE 6 (VanA); assay type: cell-based, Enterococcus faecalis
In short: as §2

33 clinical VRE isolates = test: MIC against a set of 33 clinical VRE isolates (range, MIC50, TI); assay type: cell-based, Enterococcus faecalis
In short: as §2

[5] = test system: human T-lymphocyte (CEM) cells; test: Cytostatic activity, CEM cell proliferation; assay type: cell-based; conditions: mean ± SD of three experiments; highest concentration tested 250 µM; 3 days; read-out: Toxicity (IC50) CEM
In short: as §1

VE 157 (VanB) = test: MIC, VanB-type VRE strain VE 157; assay type: cell-based, Enterococcus; conditions: VE 157, VanB; read-out: MIC
In short: as §2

VE 82 (VanC1) = test: MIC, VanC1-type VRE strain VE 82; assay type: cell-based, Enterococcus gallinarum; conditions: VE 82, VanC1; read-out: MIC
In short: as §2

S. aureus VISA/HIP5827 = test: MIC, broth microdilution, vancomycin-intermediate S. aureus VISA HIP5827; assay type: cell-based, Staphylococcus aureus
In short: as §2

MRSA KS89 = test: MIC, broth microdilution, MRSA KS89; assay type: cell-based, Staphylococcus aureus
In short: as §2

E. faecalis VRE 29 = test: MIC, broth microdilution, vancomycin-resistant E. faecalis VRE 29 (VanA); assay type: cell-based, Enterococcus faecalis
In short: as §2

[6] = test system: L1210, CEM and HeLa cell lines; test: Cytostatic activity, average or summary over L1210, CEM and HeLa; assay type: cell-based
In short: as §1

VE 152 (VanB) = test: MIC, VanB-type VRE strain VE 152; assay type: cell-based, Enterococcus; conditions: VE 152, VanB; read-out: MIC
In short: as §2

[7] = test system: S. aureus VSSA (ATCC 6538); test: MIC, broth microdilution, vancomycin-sensitive S. aureus (VSSA/MSSA, ATCC 6538); assay type: cell-based, Staphylococcus aureus
In short: as §2

E. faecalis VSE 1 = test: MIC, broth microdilution, vancomycin-sensitive E. faecalis (VSE 1); assay type: cell-based, Enterococcus faecalis
In short: as §2

[8] = test system: 24 clinical MRSA isolates; test: MIC against a set of 24 clinical MRSA isolates (range, MIC50, TI); assay type: cell-based, Staphylococcus aureus
In short: as §2

E. faecalis VRE 53 = test: MIC, broth microdilution, vancomycin-resistant E. faecalis VRE 53 (VanA); assay type: cell-based, Enterococcus faecalis
In short: as §2

VE 148 (VanB) = test: MIC, VanB-type VRE strain VE 148; assay type: cell-based, Enterococcus; conditions: VE 148, VanB; read-out: MIC
In short: as §2

MRSA KS6 = test: MIC, broth microdilution, MRSA KS6; assay type: cell-based, Staphylococcus aureus
In short: as §2

E. faecalis VRE 37 = test: MIC, broth microdilution, vancomycin-resistant E. faecalis VRE 37 (VanA); assay type: cell-based, Enterococcus faecalis
In short: as §2

## CCCCc1ccc(NC(=O)CNC(=O)[C@H]2NC(=O)[C@H]3NC(=O)[C@H](NC(=O)[C@@H]4NC(=O)[C@H](CC(N)=O)NC(=O)[C@H](NC(=O)[C@@H](CC(C)C)NC)[C@H](O)c5ccc(c(Cl)c5)Oc5cc4cc(c5O[C@@H]4O[C@H](CO)[C@@H](O)[C@H](O)[C@H]4O[C@H]4C[C@](C)(N)[C@H](O)[C@H](C)O4)Oc4ccc(cc4Cl)[C@H]3O)c3ccc(O)c(c3)-c3c(O)cc(O)cc32)cc1 [Vanc-39]
[1]
  IC50: > 250 µM
MRSA KS2; MRSA KS2, ratio of MIC of vancomycin and MIC of analogue
  MIC-fold improvement vs. vancomycin: 4
MRSA KS2; Staphylococcus aureus MRSA KS2, read-out: MIC
  MIC: 0.20 µM (≈ 0.328 µg/mL)
S. aureus VRSA; Staphylococcus aureus VRSA, read-out: MIC
  MIC: 0.78 µM (≈ 1.28 µg/mL)
S. aureus VRSA; VRSA, ratio of MIC of vancomycin and MIC of analogue
  MIC-fold improvement vs. vancomycin: 128
MRSA KS1; MRSA KS1, ratio of MIC of vancomycin and MIC of analogue
  MIC-fold improvement vs. vancomycin: 4
MRSA KS1; Staphylococcus aureus MRSA KS1, read-out: MIC
  MIC: 0.20 µM (≈ 0.328 µg/mL)
VE 149 (VanB)
  MIC: 0.78 µM (≈ 1.28 µg/mL)
MRSA
  MBC relative to MIC: MBC equaling their MIC values
[2]
  MIC-fold improvement vs. vancomycin: 22
[3]
  IC50: > 250 µM
VE 150 (VanB)
  MIC: 1.56 µM (≈ 2.55 µg/mL)
[4]
  MIC-fold improvement vs. vancomycin: 14
E. faecalis VRE 6; Enterococcus faecalis VRE 6 (vancomycin-resistant), read-out: MIC
  MIC: 3.13 µM (≈ 5.13 µg/mL)
E. faecalis VRE 6; VRE 6, ratio of MIC of vancomycin and MIC of analogue
  MIC-fold improvement vs. vancomycin: 64
33 clinical VRE isolates; 33 clinical VRE isolates
  MIC Range: 0.78 to 12.5 µM
33 clinical VRE isolates; in vitro therapeutic index, VRE
  TI (IC50/MIC50): 80
33 clinical VRE isolates; median MIC, 33 clinical VRE isolates, read-out: MIC50
  MIC50: 3.13 µM (≈ 5.13 µg/mL)
[5]
  IC50: > 250 µM
VE 157 (VanB)
  MIC: 0.78 µM (≈ 1.28 µg/mL)
VE 82 (VanC1)
  MIC: 0.78 µM (≈ 1.28 µg/mL)
S. aureus VISA/HIP5827; Staphylococcus aureus VISA/HIP5827, read-out: MIC
  MIC: 0.39 µM (≈ 0.639 µg/mL)
S. aureus VISA/HIP5827; VISA/HIP5827, ratio of MIC of vancomycin and MIC of analogue
  MIC-fold improvement vs. vancomycin: 16
MRSA KS89; MRSA KS8, ratio of MIC of vancomycin and MIC of analogue
  MIC-fold improvement vs. vancomycin: 4
MRSA KS89; Staphylococcus aureus MRSA KS8, read-out: MIC
  MIC: 0.20 µM (≈ 0.328 µg/mL)
E. faecalis VRE 29; Enterococcus faecalis VRE 29 (vancomycin-resistant), read-out: MIC
  MIC: 6.25 µM (≈ 10.2 µg/mL)
E. faecalis VRE 29; VRE 29, ratio of MIC of vancomycin and MIC of analogue
  MIC-fold improvement vs. vancomycin: 64
[6]; average IC50 used for TI in Table S5, >250 entered as 250, read-out: IC50
  IC50: 250 µM
[6]; average of L1210, CEM and HeLa, read-out: Toxicity (IC50) Average
  IC50: > 250 µM
[6]; summary over the three cell lines, read-out: IC50 (L1210, CEM, HeLa), depending on the cell line used
  IC50: > 250 µM
VE 152 (VanB)
  MIC: 0.78 µM (≈ 1.28 µg/mL)
[7]; Staphylococcus aureus VSSA, read-out: MIC
  MIC: 0.05 µM (≈ 0.0819 µg/mL)
[7]; VSSA, ratio of MIC of vancomycin and MIC of analogue
  MIC-fold improvement vs. vancomycin: 16
E. faecalis VSE 1; Enterococcus faecalis VSE 1 (vancomycin-sensitive), read-out: MIC
  MIC: 0.20 µM (≈ 0.328 µg/mL)
E. faecalis VSE 1; VSE 1, ratio of MIC of vancomycin and MIC of analogue
  MIC-fold improvement vs. vancomycin: 8
[8]; in vitro therapeutic index, MRSA
  TI (IC50/MIC50): 641
[8]; median MIC, 24 clinical MRSA isolates, read-out: MIC50
  MIC50: 0.39 µM (≈ 0.639 µg/mL)
E. faecalis VRE 53; Enterococcus faecalis VRE 53 (vancomycin-resistant), read-out: MIC
  MIC: 50 µM (≈ 81.9 µg/mL)
E. faecalis VRE 53; VRE 53, ratio of MIC of vancomycin and MIC of analogue
  MIC-fold improvement vs. vancomycin: 8
VE 148 (VanB)
  MIC: 3.13 µM (≈ 5.13 µg/mL)
MRSA KS6; MRSA KS6, ratio of MIC of vancomycin and MIC of analogue
  MIC-fold improvement vs. vancomycin: 4
MRSA KS6; Staphylococcus aureus MRSA KS6, read-out: MIC
  MIC: 0.20 µM (≈ 0.328 µg/mL)
E. faecalis VRE 37; Enterococcus faecalis VRE 37 (vancomycin-resistant), read-out: MIC
  MIC: 6.25 µM (≈ 10.2 µg/mL)
E. faecalis VRE 37; VRE 37, ratio of MIC of vancomycin and MIC of analogue
  MIC-fold improvement vs. vancomycin: 64
